Structures can show the parent of a compound that is named as a salt. Blank lines part the entries; values can stand above or below the molecule they belong to.
Key:
[1] = molecular target: Proteinase K (Parengyodontium album, UniProt P06873); experiment: Proteinase K activity (digestion of 14C-labeled BSA); format: biochemical
Protocol: Prior to empirical determination, it could not be predicted whether addition of the GuSCN to TMA.TFA would produce a reagent with the capability of controlling nucleases. The extent of Proteinase K activity in GT^3 was assayed by determining its ability to digest (solubilize) ^14 C-labeled bovine serum albumin (BSA).
These experiments were done twice, and the percentages below are the averages of the two experiments; the numbers in parentheses are the experimental variations.

[2] = molecular target: T1, RNase A (Bos taurus, UniProt P61823); experiment: RNase A inhibition (capturable rRNA target complex); format: biochemical; conditions: for % RNase inhibition: 37° C., 15 minutes; for RNase inactivated: RNase 0.125 μg/ml, 15 min
T1 sequence (P61823 27-150): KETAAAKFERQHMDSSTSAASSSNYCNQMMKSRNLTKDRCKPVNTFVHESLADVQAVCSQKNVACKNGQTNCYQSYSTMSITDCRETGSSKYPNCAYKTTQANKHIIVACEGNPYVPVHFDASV
Protocol: Though the ability of a hybridization medium to support protease activity is desirable, an equally (or more) important property is the capability of inhibiting nucleases, especially ribonucleases. […] The experimental protocol was a follows:
1) A target complex was prepared by hybridizing target rRNA (from Salmonella extracts), capture probe (dA-676), and ^32 P-labeled 3'-Riboprobe (as earlier described).
2) The target complex was diluted into each of the above four test reagents.
3) RNase A solutions of various concentrations (0-250 μg/ml in […] phosphate buffer pH7) were prepared. Into tubes of the diluted target complex was added RNase A, to one of the final concentrations noted in Table 3 below. The control comprised only phosphate buffer diluent. The mixtures were incubated at 37° C. for 15 minutes. Proteinase K was added to a final concentration of 1.25 mg/ml to stop the nuclease activity.
4) Tailed probes and hybridized complexes were captured on magnetic beads (as previously described), which were washed and counted. The level of RNase inhibition was calculated as follows. [formula]

[3] = Reagent stability; format: physicochemical
Protocol: TMA.TFA was prepared by combining equimolar amounts of concentrated Trifluoroacetic acid (Sigma Chemical Co. or Pierce Chemical Co.) and TMA.OH (Sigma Chemical Co. or Southwestern Analytical Chemicals, Inc.) and buffering it with 0.1M phosphate, 0.1M borate, 0.05 mM EDTA (phosphoric acid, boric acid, and EDTA (free acid), neutralized with TMA.OH). Buffered TMA.TFA remained at a constant pH for at least 1 year and its refractive index indicated a loss of only 2-3% of the solutes over the same period.
TMA.TCA is ideally prepared by neutralizing highly concentrated TCA (~9.3M, or ~1.5 g/ml) with TMA.OH. […] This is ideally avoided since the efficiency of hybridization falls as the pH becomes less neutral. […] From the mass, volume and concentration of starting materials, and the volume of the final solution, the nominal concentration of the final product was calculated to be about 3M.

Sequence of Proteinase K (P06873 106-384): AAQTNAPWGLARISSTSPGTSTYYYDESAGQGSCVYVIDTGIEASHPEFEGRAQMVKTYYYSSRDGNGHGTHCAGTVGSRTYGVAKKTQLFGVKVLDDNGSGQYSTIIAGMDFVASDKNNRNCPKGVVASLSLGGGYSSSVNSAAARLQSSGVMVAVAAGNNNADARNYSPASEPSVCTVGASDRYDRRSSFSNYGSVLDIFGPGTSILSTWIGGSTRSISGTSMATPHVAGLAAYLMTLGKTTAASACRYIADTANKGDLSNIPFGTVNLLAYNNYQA

% BSA solubilized ([1]; Proteinase K in reagent): 41% (+/-10%)
half-life of Proteinase K activity ([1]; incubation at 37° C. in reagent): less than an hour
% RNase inhibition ([2]; RNase A 0.00 ug/ml): 100%
% RNase inhibition ([2]; RNase A 0.13 ug/ml): 100%
% RNase inhibition ([2]; RNase A 1.25 ug/ml): 100%
% RNase inhibition ([2]; RNase A 4.17 ug/ml): 100%
% RNase inhibition ([2]; RNase A 12.50 ug/ml): 100%
Compound: N=C(N)N [GuSCN, Guanidinium thiocyanate]

Compound: C[N+](C)(C)C [TMA.TCA, Tetramethyammonium:Trichloroacetate]
Proteinase K activity in reagent [1]: advantageously active
pH stability ([3]; buffered with phosphate (0.1M) and borate (0.1M)): at least one month

Compound: C[N+](C)(C)C [TMA.TFA, Tetramethyammonium:Trifluoroacetate]
time at constant pH ([3]; buffered solution): at least 1 year
RNase A inhibition [2]: relatively ineffective in inactivating RNase
RNase inactivated ([2]; with Proteinase K 2.5 mg/ml): 92%
RNase inactivated ([2]; without the protease): 73%

Reference: patent US5589335A, “Hybridization promotion reagents” (Amoco Corporation, priority 1994, dated 1996)
